Read-outs that look alike come from different tables or passages of the source. Marks after values point to notes of the source that are not given here.
Columns and labels:
BoNT/A holotoxin [1] = biological target: BoNT/A holotoxin (Clostridium botulinum, UniProt P0DPI1); assay: cell-based
healthy mice = settings: mouse, in vivo; for Mice alive/Total mice: po, 160 mg/kg
BoNT/A holotoxin [2] = biological target: BoNT/A holotoxin (Clostridium botulinum, UniProt P0DPI0)
[3] = in vivo
HSA = HSA (Homo sapiens, UniProt P02768); settings: pH 7.34
AGP = settings: pH 7.34
[4] = test system: CYP450 enzymes (CYP3A4, CYP2C19, CYP2D6); assay: in vitro; settings: human
BoNT/A holotoxin [5] = test system: BoNT/A holotoxin
BoNT/A = settings: mouse, in vivo; cited from earlier work

Sequence of BoNT/A holotoxin (Clostridium botulinum, UniProt P0DPI1) (P0DPI1 2-448 limits assumed): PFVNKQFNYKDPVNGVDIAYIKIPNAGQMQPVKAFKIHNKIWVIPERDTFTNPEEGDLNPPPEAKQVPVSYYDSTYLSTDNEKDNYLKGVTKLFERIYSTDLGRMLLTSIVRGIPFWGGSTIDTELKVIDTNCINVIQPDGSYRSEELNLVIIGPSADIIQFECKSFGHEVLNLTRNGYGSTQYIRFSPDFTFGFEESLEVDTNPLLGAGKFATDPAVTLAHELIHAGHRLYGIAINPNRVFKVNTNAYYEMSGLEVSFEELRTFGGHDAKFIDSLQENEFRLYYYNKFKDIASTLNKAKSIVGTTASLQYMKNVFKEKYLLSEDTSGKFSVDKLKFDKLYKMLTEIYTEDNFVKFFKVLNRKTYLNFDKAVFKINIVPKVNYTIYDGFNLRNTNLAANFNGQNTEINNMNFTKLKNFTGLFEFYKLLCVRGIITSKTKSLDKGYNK
Sequence of BoNT/A holotoxin (Clostridium botulinum, UniProt P0DPI0) (P0DPI0 2-1296 limits assumed): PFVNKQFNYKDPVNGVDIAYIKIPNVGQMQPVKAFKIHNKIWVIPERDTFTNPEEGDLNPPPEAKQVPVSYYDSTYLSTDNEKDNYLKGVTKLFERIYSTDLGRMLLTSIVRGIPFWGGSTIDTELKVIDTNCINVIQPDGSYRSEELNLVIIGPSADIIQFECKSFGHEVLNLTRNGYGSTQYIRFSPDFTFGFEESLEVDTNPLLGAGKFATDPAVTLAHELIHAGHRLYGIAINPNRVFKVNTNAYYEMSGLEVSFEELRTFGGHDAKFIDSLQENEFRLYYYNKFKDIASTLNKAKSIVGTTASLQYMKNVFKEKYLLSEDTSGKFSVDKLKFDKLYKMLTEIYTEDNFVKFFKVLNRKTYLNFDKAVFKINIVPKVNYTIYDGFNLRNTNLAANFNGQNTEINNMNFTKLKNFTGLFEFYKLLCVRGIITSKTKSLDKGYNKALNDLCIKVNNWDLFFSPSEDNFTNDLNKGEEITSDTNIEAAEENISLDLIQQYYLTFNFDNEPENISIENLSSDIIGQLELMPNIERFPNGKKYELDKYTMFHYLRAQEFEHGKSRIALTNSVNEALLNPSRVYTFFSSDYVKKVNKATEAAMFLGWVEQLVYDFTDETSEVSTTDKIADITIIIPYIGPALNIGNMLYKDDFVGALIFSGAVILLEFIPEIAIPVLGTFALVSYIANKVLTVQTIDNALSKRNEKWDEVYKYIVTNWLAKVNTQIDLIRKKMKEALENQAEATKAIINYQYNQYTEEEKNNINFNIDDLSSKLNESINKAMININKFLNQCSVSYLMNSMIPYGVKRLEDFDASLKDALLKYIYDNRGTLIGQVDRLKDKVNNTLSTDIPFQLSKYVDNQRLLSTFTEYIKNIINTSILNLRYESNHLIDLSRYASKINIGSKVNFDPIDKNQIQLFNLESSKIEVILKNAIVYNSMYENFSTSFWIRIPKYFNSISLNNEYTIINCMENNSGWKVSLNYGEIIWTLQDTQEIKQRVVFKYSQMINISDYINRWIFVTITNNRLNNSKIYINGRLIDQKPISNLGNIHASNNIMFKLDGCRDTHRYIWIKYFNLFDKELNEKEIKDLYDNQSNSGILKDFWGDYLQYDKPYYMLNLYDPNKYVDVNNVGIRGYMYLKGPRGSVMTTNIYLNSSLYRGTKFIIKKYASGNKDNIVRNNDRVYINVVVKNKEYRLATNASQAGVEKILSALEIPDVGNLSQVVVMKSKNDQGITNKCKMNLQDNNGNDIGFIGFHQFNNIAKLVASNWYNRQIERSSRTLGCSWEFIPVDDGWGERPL
Sequence of HSA (P02768 25-609): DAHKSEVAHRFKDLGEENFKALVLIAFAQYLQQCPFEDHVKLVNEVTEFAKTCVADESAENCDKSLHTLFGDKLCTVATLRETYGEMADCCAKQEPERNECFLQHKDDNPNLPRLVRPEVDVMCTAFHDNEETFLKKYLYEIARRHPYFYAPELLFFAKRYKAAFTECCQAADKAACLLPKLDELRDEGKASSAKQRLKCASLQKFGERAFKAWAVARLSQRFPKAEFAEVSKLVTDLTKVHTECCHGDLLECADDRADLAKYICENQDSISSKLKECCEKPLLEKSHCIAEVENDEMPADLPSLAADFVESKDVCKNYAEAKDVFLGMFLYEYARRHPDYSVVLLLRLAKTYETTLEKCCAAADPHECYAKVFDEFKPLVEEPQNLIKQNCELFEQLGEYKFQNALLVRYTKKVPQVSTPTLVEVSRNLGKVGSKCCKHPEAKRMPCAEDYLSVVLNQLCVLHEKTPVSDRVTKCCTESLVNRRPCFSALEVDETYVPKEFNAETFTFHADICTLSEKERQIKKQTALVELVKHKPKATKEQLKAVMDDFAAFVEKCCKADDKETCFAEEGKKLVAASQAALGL

| Compound | % of full length SNAP-25, mES-MNs pre intoxication (BoNT/A holotoxin [1]; 10 μM) | % of full length SNAP-25, mES-MNs pre intoxication (BoNT/A holotoxin [1]; 20 μM) | exp LogD (pH 1) | exp LogD (pH 10) | further results |
| --- | --- | --- | --- | --- | --- |
| CC(CCN(C)CC12CC3CC(CC(C3)C1)C2)Nc1ccnc2ccccc12 (stereo not drawn) [Compound 85] | – | – | – | – | % of full length SNAP-25, mES-MNs pre intoxication (BoNT/A holotoxin [1]): 47; 46% |
| CC(=O)O[C@H]1C[C@H]2[C@@H]([C@H](OC(C)=O)C[C@@H]3C[C@H](N)CC[C@@]32C)[C@@H]2CC[C@H]([C@H](C)CCCNC(C)CCCNc3ccnc4ccccc34)[C@@]12C (stereo partly drawn) [Compound 19] | 86; 87% | 86; 87% | 2.21 (pH=1) | – | Mice alive/Total mice (healthy mice): 3/5 |
| CC(CCCNc1ccnc2ccccc12)NCc1ccc(-c2csc3ccc(F)cc23)cc1 (stereo not drawn) [Compound 34] | – | – | – | 3.85 (pH=10) | % of full length SNAP-25, mES-MNs pre intoxication (BoNT/A holotoxin [1]): 58; 68%; IC50 (BoNT/A holotoxin [1]): 10 to 20 µM; Mice alive/Total mice (healthy mice): 5/5 |
| CC(=O)O[C@H]1C[C@H]2[C@@H]([C@H](OC(C)=O)C[C@@H]3C[C@H](N)CC[C@@]32C)[C@@H]2CC[C@H]([C@H](C)CCCN(C)CCCCNc3ccnc4ccccc34)[C@@]12C [Compound 15] | 70; 69% | 70; 69% | 2.11 (pH=1) | – | – |
| CC(=O)O[C@H]1C[C@H]2[C@@H]([C@H](OC(C)=O)C[C@@H]3C[C@H](NCCCCCCNc4ccnc5cc(Cl)ccc45)CC[C@@]32C)[C@@H]2CC[C@H]([C@H](C)CCCNCCCCCCNc3ccnc4cc(Cl)ccc34)[C@@]12C [Compound 1, reference compound] | 70; 84% | 70; 84% | – | – | IC50 (BoNT/A holotoxin [1]): < 10 µM; % of full length SNAP-25, mES-MNs post intoxication (BoNT/A holotoxin [2]): 36; 20% |
| CC(CCNCC12CC3CC(CC(C3)C1)C2)Nc1c(F)cnc2cc(Cl)ccc12 (stereo not drawn) [Compound 104] | 31; 35% | 31; 35% | – | 3.24 (pH=10) | – |
| CC(=O)O[C@H]1C[C@H]2[C@@H]([C@H](OC(C)=O)C[C@@H]3C[C@H](N)CC[C@@]32C)[C@@H]2CC[C@H]([C@H](C)CCCNCCCCNc3ccnc4cc(Cl)ccc34)[C@@]12C [Compound 16] | – | – | 2.55 (pH=1); 2.07 (pH=7.3) ^d | – | time Tc > 3μM ([3]; mouse): >45 min; Ksv for HSA (HSA): (4.56±0.27)×10^4; % of full length SNAP-25, mES-MNs pre intoxication (BoNT/A holotoxin [1]): 72; 88%; Ksv for AGP (AGP): (6.99±0.25)×10^5; IC50 [4]: 1 to 10 µM; toxicity in mES-MNs (GAPDH loading control levels lower) (BoNT/A holotoxin [5]): potential toxicity; host toxicity, single oral dose (healthy mice): non-toxic; Mice alive/Total mice (healthy mice): 5/5 |
| CN(CCCCCCCCNc1ccnc2ccccc12)Cc1ccc(-c2ccc(-c3ccc(C#N)cc3)s2)cc1 [Compound 96] | – | – | 3.33 (pH=1) | – | % of full length SNAP-25, mES-MNs pre intoxication (BoNT/A holotoxin [1]): 54; 60%; IC50 (BoNT/A holotoxin [1]): 5 to 10 µM; Mice alive/Total mice (healthy mice): 5/5 |
| O=C(CS)Nc1cc(-c2ccc(F)cc2)n[nH]1 [ABS 252, N-(3-(4-fluorophenyl)-1H pyrazol-5 yl)-2-mercaptoacetamide] | – | – | – | – | survival of BoNT intoxicated mice (BoNT/A): effective in extending survival |
| N#Cc1ccc2scc(-c3ccc(CNCCCCNc4ccnc5ccccc45)cc3)c2c1 [Compound 86] | 21; 26% | 21; 26% | – | 3.67 (pH=10) | – |
| CC(=O)O[C@H]1C[C@H]2[C@@H]([C@H](OC(C)=O)C[C@@H]3C[C@H](N)CC[C@@]32C)[C@@H]2CC[C@H]([C@H](C)CCCNCCCC(C)Nc3ccnc4ccccc34)[C@@]12C (stereo partly drawn) [Compound 17] | 67; 69% | 67; 69% | 2.28 (pH=1) | – | – |
| CC(CCNc1ccnc2cc(Cl)ccc12)NCC12CC3CC(CC(C3)C1)C2 (stereo not drawn) [Compound 102] | 29; 30% | 29; 30% | – | 3.40 (pH=10) | – |
| CC(CCN(C)CC12CC3CC(CC(C3)C1)C2)Nc1ccnc2cc(Cl)ccc12 (stereo not drawn) [Compound 60] | 63; 72% | 63; 72% | – | 3.47 (pH=10) | IC50 (BoNT/A holotoxin [1]): < 10 µM; protection of SNAP-25, pre-exposure dose-response experiment (BoNT/A holotoxin [1]): 90%; Mice alive/Total mice (healthy mice): 3/5 |
| CC(CCNCC12CC3CC(CC(C3)C1)C2)Nc1c(F)cnc2ccccc12 (stereo not drawn) [Compound 105] | 24; 23% | 24; 23% | – | 3.09 (pH=10) | – |
| CC(CCCN(C)Cc1ccc(-c2csc3ccc(C#N)cc23)cc1)Nc1ccnc2ccccc12 (stereo not drawn) [Compound 38] | – | – | – | 3.42 (pH=10) | % of full length SNAP-25, mES-MNs pre intoxication (BoNT/A holotoxin [1]): 59; 64%; IC50 (BoNT/A holotoxin [1]): 10 to 20 µM |
| CN(CCCCNc1ccnc2ccccc12)Cc1ccc(-c2csc3ccc(F)cc23)cc1 [Compound 37] | 44; 55% | 44; 55% | – | 3.98 (pH=10) | – |

| Compound | % of full length SNAP-25, mES-MNs pre intoxication (BoNT/A holotoxin [1]; 10 μM) | % of full length SNAP-25, mES-MNs pre intoxication (BoNT/A holotoxin [1]; 20 μM) | exp LogD (pH 1) | exp LogD (pH 10) | further results |
| --- | --- | --- | --- | --- | --- |
| N#Cc1ccc(-c2ccc(-c3ccc(CNCCCCCCCCNc4ccnc5ccccc45)cc3)s2)cc1 [Compound 93] | – | – | 3.42 (pH=1) | – | % of full length SNAP-25, mES-MNs pre intoxication (BoNT/A holotoxin [1]): 31; 70%; Mice alive/Total mice (healthy mice): 5/5 |
| CC(CCNCCC12CC3CC(CC(C3)C1)C2)Nc1c(F)cnc2ccccc12 (stereo not drawn) [Compound 106] | 30; 32% | 30; 32% | – | 4.13 (pH=10) | – |
| C[C@H](CCCNCCCCNc1ccnc2cc(Cl)ccc12)[C@H]1CC[C@H]2[C@@H]3[C@H](O)C[C@@H]4C[C@H](N)CC[C@]4(C)[C@H]3C[C@H](O)[C@]12C [Compound 24] | – | – | 2.97 (pH=1) | – | detection as metabolite in mouse samples after oral 16 [3]: None of these metabolites were detected; IC50 (BoNT/A holotoxin [1]): 8 to 16 µM; % of full length SNAP-25, mES-MNs pre intoxication (BoNT/A holotoxin [1]; 8 μM): 46; 58 ^e %; % of full length SNAP-25, mES-MNs pre intoxication (BoNT/A holotoxin [1]; 16 μM): 46; 58 ^e % |
| N#Cc1ccc(-c2ccc(-c3ccc(CNCCCCCCNc4ccnc5ccccc45)cc3)s2)cc1 [Compound 46] | 22; 48% | 22; 48% | 3.08 (pH=1) | – | – |
| N#Cc1ccc2scc(-c3ccc(CNCCCCCCNc4ccnc5ccccc45)cc3)c2c1 [Compound 87] | 36; 43% | 36; 43% | – | 3.85 (pH=10) | – |
| CC(=O)O[C@H]1C[C@H]2[C@@H]([C@H](OC(C)=O)C[C@@H]3C[C@H](N)CC[C@@]32C)[C@@H]2CC[C@H]([C@H](C)CCCNCCCCNc3ccnc4ccccc34)[C@@]12C [Compound 14] | 28; 67% | 28; 67% | 2.14 (pH=1) | – | IC50 (BoNT/A holotoxin [1]): 10 to 20 µM |
| N#Cc1ccc(-c2ccc(-c3cccc(CNCCCCCCNc4ccnc5ccccc45)c3)s2)cc1 [Compound 50] | 46; 71% | 46; 71% | 3.08 (pH=1) | – | – |
| CC(CCNCCC12CC3CC(CC(C3)C1)C2)Nc1c(F)cnc2cc(Cl)ccc12 (stereo not drawn) [Compound 103] | 30; 29% | 30; 29% | – | 4.33 (pH=10) | – |
| CN(CCCNc1ccnc2cc(Cl)ccc12)CC12CC3CC(CC(C3)C1)C2 [Compound 57] | 51; 56% | 51; 56% | – | 3.24 (pH=10) | Mice alive/Total mice (healthy mice): 4/5 |
| CC(CCCNCc1ccc(-c2csc3ccc(F)cc23)cc1)Nc1ccnc2ccccc12 (stereo not drawn) [Compound 91] | – | – | – | 3.98 (pH=10) | % of full length SNAP-25, mES-MNs pre intoxication (BoNT/A holotoxin [1]): 62; 62% |
| N#Cc1ccc(-c2ccc(-c3ccc(CNCCCCNc4ccnc5ccccc45)cc3)s2)cc1 [Compound 101] | 18; 39% | 18; 39% | 2.93 (pH=1) | – | – |
| CC(CCCNCc1ccc(-c2csc3ccc(C#N)cc23)cc1)Nc1ccnc2ccccc12 (stereo not drawn) [Compound 36] | 34; 53% | 34; 53% | – | 3.67 (pH=10) | – |
| CC(=O)O[C@H]1C[C@H]2[C@@H]([C@H](OC(C)=O)C[C@@H]3C[C@H](N)CC[C@@]32C)[C@@H]2CC[C@H]([C@H](C)CCCN(C)CCCC(C)Nc3ccnc4ccccc34)[C@@]12C (stereo partly drawn) [Compound 18] | – | – | 2.38 (pH=1) | – | % of full length SNAP-25, mES-MNs pre intoxication (BoNT/A holotoxin [1]): 20; 41% |
| CC(CCNc1ccnc2ccccc12)NCCC12CC3CC(CC(C3)C1)C2 (stereo not drawn) [Compound 81] | 23; 24% | 23; 24% | – | – | – |
| CN(CCCNc1ccnc2ccccc12)CC12CC3CC(CC(C3)C1)C2 [Compound 68] | 30; 31% | 30; 31% | – | – | – |

— publication PMC5833296 (Journal of medicinal chemistry, 2018)
